Test results as given in patent US10696660B2, “Rho kinase inhibitors” (priority 2012, dated 2020).
“Also recorded” adds a separate entry of the source.

Assays:
PBMCs = assay: ex vivo anti-CD3/CD28 stimulated cytokine production in PBMCs isolated from treated patients; set-up: species or system human; conditions: 120 mg/day, days 1 and 8-14
STAT3 = STAT3 phosphorylation in T cells; assay type: cell-based, human
human CD4^+ T cells = assay: proliferation of T cells in response to TCR stimulation in vitro; assay type: cell-based; conditions: listed as KD025
[1] = test system: CD4^+ T cells from RA patients; assay: cytokine secretion ex vivo by CD3/CD28 stimulated CD4+ T cells from RA patients; assay type: cell-based, human; conditions: listed as KD025
[2] = test system: TGF-β-induced STAT3, MLC and SMAD2/3 phosphorylation; assay: TGF-β-induced phosphorylation of STAT3, MLC and SMAD2/3 in Tregs; assay type: cell-based

CC(C)NC(=O)COc1cccc(-c2nc(Nc3ccc4[nH]ncc4c3)c3ccccc3n2)c1 [SLx-2119]
induction of IL-17 secretion in PBMCs (PBMCs): significantly inhibited in PBMCs isolated from four of five patients
induction of IL-21 secretion in PBMCs (PBMCs): significantly inhibited in PBMCs from all five patients
STAT3 phosphorylation (STAT3; Th17-skewing conditions 5 days, then treated 3 hours): STAT3 phosphorylation was reduced
phosphorylation of STAT3 (STAT3; pre-treatment, then anti-CD3/CD28 stimulation): reduced phosphorylation of STAT3
phosphorylation of STAT3, IFR4 and RORγT (STAT3; separate experiment (FIG. 9C)): reduced phosphorylation
phosphorylation of STAT3 (STAT3; two different experimental designs, listed as KD025): inhibits STAT3 phosphorylation; also recorded: significantly down-regulates
proliferation in response to TCR stimulation (human CD4^+ T cells): inhibits; also recorded: down-regulated their ability to proliferate
secretion of IFN-γ [1]: inhibits; also recorded: significantly down-regulated
secretion of IL-17 [1]: inhibits; also recorded: significantly down-regulated
secretion of IL-21 [1]: inhibits; also recorded: significantly down-regulated
TGF-β-induced STAT3 and MLC phosphorylation [2]: down-regulates
